In one assay the target is T1, FPR1 (UniProt P21462).
T1 sequence (P21462 1-350): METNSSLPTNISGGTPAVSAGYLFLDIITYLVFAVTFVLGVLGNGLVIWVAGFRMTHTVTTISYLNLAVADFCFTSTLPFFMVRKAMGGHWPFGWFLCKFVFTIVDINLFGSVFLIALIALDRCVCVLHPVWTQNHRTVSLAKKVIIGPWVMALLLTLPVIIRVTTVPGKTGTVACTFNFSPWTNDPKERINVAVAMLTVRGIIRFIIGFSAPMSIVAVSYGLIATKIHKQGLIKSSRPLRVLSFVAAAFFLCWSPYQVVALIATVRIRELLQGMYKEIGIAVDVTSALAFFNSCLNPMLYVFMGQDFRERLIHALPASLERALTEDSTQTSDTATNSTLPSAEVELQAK
As to the kind of experiment: fMLP-FPR1 mediated calcium signaling assay in FPR1-overexpressing 293T cells. It counts as cell-based, human or mouse. The conditions noted are these: inhibition of fMLP-FPR1 mediated intracellular calcium change; hFPR1 or mFPR1 overexpressing 293T cells; 10 min preincubation; INDO-1 AM, FACS. The procedure:
The effects of the compounds of this disclosure on regulating the FPR1-mediated cell signaling were measured by monitoring the cellular calcium level change, as illustrated by the exemplary examples in Table 2. The dose response of the illustrated examples are reported categorically using the following ranking criteria: *** (IC50≤100 nM); ** (IC50≥100 to ≤1000 nM); * (IC50≥1000 to ≤10,000 nM); N.D.—not detected.
The coding DNA sequence (CDS) of human FPR1 (NM_001193306) and mouse FPR1 (NM_013521) were cloned and inserted to the lentivirus vector GV367 (Vector information:http://www.genechem.com.cn/index/supports/tool_search.html?keywords=GV367) under the conduction of pCMV promoter. 293T cells were cultured in H-DMEM supplemented with 10% FBS and 1% penicillin-streptomycin (PS) at 37° C. in 5% CO2 Incubator. 293T cells were transfected with lentivirus vector GV367 containing the CDS of human or mouse FPR1 for 24 h and then cultured with complete medium for another 48 h. At 72 h after transfected, cells were passaged, and 5 μg/ml puromycin was added to screen FPR1-transfected 293T cells. The overexpression of human or mouse FPR1 in 293 T cells were detected by immunostaining with anti-mouse or human FPR1 antibodies (Biolegend or Antibody Online).
Cultured hFPR1 or mFPR1 overexpressing 293T cells were labeled with 1 μM INDO-1 AM calcium sensor dye (eBioscience) for 30 min at 37° C. After washed with 1×PBS, cells were resuspended with H-DMEM containing 3% FBS, and were maintained on ice prior to the measurement of intracellular calcium concentration. To measure the inhibitory potency of designed potential FPR1 antagonists, hFPR1 or mFPR1 overexpressing 293T cells were incubated with the compound for 10 min at room temperature. The cytoplasmic calcium levels were then measured by FACS Aria III at 37° C. prior to and after the stimulation of fMLP. We defined the immunofluorescence intensity of indo-1 AM before adding fMLP as the basal value, and the intensity at the peak immunofluorescence reduction after adding fMLP as minimum value for each sample. The change of intracellular calcium was calculated as follow: (basal value−minimum value)/basal value×100%. The IC50 of each compound in inhibiting fMLP-FPR1 mediated intracellular calcium concentration in 293T cells were automatically calculated with Prism 8.0.2 software (GraphPad) after inputting a series of change of intracellular calcium at multiple concentration gradients (from 0 nM to 100 μM).

Assay [1] has as its system ICH mice. As to the kind of experiment: MRI lesion, hematoma and perihematomal edema volume in intracerebral hemorrhage (ICH) mouse model. The settings on record: 5 mg/kg/daily i.p., first dose 1 h after ICH onset, vs vehicle. In kind it is in vivo. An excerpt:
(§1) The intracerebral hemorrhage (ICH) model in mice was used to illustrate the protective benefits of the compounds of this disclosure, and FIG. 1 depicts the procedure in preparing this model. ICH was induced in C57 B/L6 male mice by the injection of an autologous blood or collagenase as previously described (Lauer et al., Circulation 124: 1654-1662 (2011); Rynkowski et al., Nat. Protoc. 3:122-128 (2008)). Mice were anesthetized using isoflurane inhalation and fixed on a stereotactic frame. A burr hole was drilled on the right side of the skull at 2.3 mm lateral to the midline and 0.5 mm anterior to the bregma. For the autologous blood model, 30 μl of non-heparinized blood was withdrawn from the angular vein. The first 5 μl blood was injected at a depth of 3 mm beneath the hole, and the rest 25 μl blood were injected at 3.7 mm beneath the hole with a rate of 1 μl/min. In the collagenase model, 0.038 U of the bacterial collagenase (in 0.5 μl saline) was infused to the striatum (0.5 mm anterior, 2.3 mm right lateral, and 3.5 mm deep relative to bregma) at a speed of 0.5 μl/min. Mice on the sham control were injected with an equal volume of saline. Throughout the procedure, the body temperature was maintained at 37° C. with a homeothermic blanket. After the surgery, mice were under observation with free access to food and water. […]
The total lesion volume was measured on the 7T small-animal MM scanner (Bruker, Corp., USA) as described (Li et al., 2017). The T2-weighted water imaging was recorded with following parameters (repetition time (TR)=4500 ms, echo time (TE)=65.5 ms, field of view (FOV)=28×28 mm^2, image matrix=256×256, at 0.5-mm slice thickness). […] The volumes were manually outlined and calculated by multiplying the sum of the volume by the distance between sections (0.5 mm) using MIPAV software. PHE volumes were calculated as total lesion volume minus hematoma volume. MRI data were analyzed by two investigators blinded to experimental groups.

In assay [2] the test system is ICH mice. As to the kind of experiment: Brain water content in ICH mouse model. In kind it is in vivo. The settings on record: 5 mg/kg/daily i.p., first dose 1 h after ICH onset, 24 h, vs vehicle.
Description: as §1
Brain water content was measured at day 1 after ICH. […]

We go through 1 molecule from patent US20240109897A1, “MODULATORS OF FPR1 AND METHODS OF USING THE SAME” (BEIJING TIANTAN HOSPITAL, priority 2021, published 2024).

pIC50: −log10 of the molar value.

In the case of `Cc1ccc(O)c(-c2[nH]nc3c2C(c2ccc(C(F)(F)F)cc2)N(C2CCOCC2)C3=O)c1` (racemic) [Compound 1, Rac-3-(2-hydroxy-5-methylphenyl)-5-(tetrahydro-2H-pyran-4-yl)-4-(4-(trifluoromethyl)phenyl)-4,5-dihydropyrrolo[3,4-c]pyrazol-6(2H)-one], at FPR1, the pIC50 was 6.00 to 7.00. Further, the “perihematomal edema (PHE) size” value with ICH mice [1] is “significantly reduced”. For the same molecule, the “total brain water content” value in the assay with ICH mice [2] is listed as “significantly reduced”.
